Columns and labels:
[1] = Liver microsomal stability assay (extraction ratio); assay type: in vitro ADME; conditions: test compound 1 μM; 0.5 mg/mL liver microsomes, NADPH, 37° C.; species not stated (method: mouse, rat, and human)
Experimental: 5.4. Liver Microsomal Stability Assay (Extraction Ratio)
Microsomal stability studies (see, Chrovian et al, “H-Pyrrolo[3,2-b]pyridine GluN2B-Selective Negative Allosteric Modulators”. ACS Med Chem Lett. 2019 Jan. 10; 10(3):261-266) were conducted on a Biomek® FX Robotic Liquid Handling Workstation (Beckman Coulter, Brea, Calif.), which consists of a 96-channel pipette head, a 12-position workstation deck, and a plate incubator. Test compounds (1 μM) were spiked in a reaction mix consisting of 100 mM potassium phosphate buffer (pH 7.4), 3 mM MgCl2, and 0.5 mg/mL liver microsomes from mouse, rat, and human (BD Gentest). The reaction was brought to 37° C. and initiated by adding NADPH to a final concentration of 1 mM. After mixing on the platedeck, 50 μL aliquots were excised from the reaction plate at 0, 5, 10, 20, 40, and 60 min and quenched with four volumes of acetonitrile spiked with […] of the internal standard phenytoin. Quenched plates were centrifuged at 5700 rpm for 10 min at 4° C., and supernatant was diluted 1:3 in water before LC/MS/MS analysis. The compound half-lives were derived from plots of the In of percent remaining compound over time to determine the intrinsic clearance. The predicted hepatic clearance was derived from the intrinsic clearance value using equations from the well-stirred model (Current Drug Metabolism, 2008, 9, 940-951), where no correction was made plasma protein binding and the blood to plasma concentration ratio was assumed to be one. The extraction ratio (ER) was calculated by dividing the predicted hepatic clearance by species blood flow (Q), where Q is 90, 55, and 21.7 mL/min/kg for mouse, rat and human, respectively.

[2] = molecular target: human GluN1/GluN2B NMDA receptors (Homo sapiens, UniProt Q05586+Q13224); test: Cell-based calcium flux (FLIPR) assay on cloned human GluN1/GluN2B ion channels expressed in mammalian cells; conditions: standard assay; glutamate ~EC40, 10 μM glycine; stable Tet-On cell line
Method in brief: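 Tet-On-induced stable cells expressing human GluN1/GluN2B, Calcium 5 dye. Compounds preincubated 5 min (agonist check), then glutamate at ~EC40 plus 10 μM glycine added for 5 min; Mg2+ and buffer composition differ between standard and HTS formats. FLIPR Tetra fluorescence normalised to control wells; (+)MK-801 as antagonist control.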

Chain of human GluN1/GluN2B NMDA receptors (Q13224 27-1484, other chains not shown): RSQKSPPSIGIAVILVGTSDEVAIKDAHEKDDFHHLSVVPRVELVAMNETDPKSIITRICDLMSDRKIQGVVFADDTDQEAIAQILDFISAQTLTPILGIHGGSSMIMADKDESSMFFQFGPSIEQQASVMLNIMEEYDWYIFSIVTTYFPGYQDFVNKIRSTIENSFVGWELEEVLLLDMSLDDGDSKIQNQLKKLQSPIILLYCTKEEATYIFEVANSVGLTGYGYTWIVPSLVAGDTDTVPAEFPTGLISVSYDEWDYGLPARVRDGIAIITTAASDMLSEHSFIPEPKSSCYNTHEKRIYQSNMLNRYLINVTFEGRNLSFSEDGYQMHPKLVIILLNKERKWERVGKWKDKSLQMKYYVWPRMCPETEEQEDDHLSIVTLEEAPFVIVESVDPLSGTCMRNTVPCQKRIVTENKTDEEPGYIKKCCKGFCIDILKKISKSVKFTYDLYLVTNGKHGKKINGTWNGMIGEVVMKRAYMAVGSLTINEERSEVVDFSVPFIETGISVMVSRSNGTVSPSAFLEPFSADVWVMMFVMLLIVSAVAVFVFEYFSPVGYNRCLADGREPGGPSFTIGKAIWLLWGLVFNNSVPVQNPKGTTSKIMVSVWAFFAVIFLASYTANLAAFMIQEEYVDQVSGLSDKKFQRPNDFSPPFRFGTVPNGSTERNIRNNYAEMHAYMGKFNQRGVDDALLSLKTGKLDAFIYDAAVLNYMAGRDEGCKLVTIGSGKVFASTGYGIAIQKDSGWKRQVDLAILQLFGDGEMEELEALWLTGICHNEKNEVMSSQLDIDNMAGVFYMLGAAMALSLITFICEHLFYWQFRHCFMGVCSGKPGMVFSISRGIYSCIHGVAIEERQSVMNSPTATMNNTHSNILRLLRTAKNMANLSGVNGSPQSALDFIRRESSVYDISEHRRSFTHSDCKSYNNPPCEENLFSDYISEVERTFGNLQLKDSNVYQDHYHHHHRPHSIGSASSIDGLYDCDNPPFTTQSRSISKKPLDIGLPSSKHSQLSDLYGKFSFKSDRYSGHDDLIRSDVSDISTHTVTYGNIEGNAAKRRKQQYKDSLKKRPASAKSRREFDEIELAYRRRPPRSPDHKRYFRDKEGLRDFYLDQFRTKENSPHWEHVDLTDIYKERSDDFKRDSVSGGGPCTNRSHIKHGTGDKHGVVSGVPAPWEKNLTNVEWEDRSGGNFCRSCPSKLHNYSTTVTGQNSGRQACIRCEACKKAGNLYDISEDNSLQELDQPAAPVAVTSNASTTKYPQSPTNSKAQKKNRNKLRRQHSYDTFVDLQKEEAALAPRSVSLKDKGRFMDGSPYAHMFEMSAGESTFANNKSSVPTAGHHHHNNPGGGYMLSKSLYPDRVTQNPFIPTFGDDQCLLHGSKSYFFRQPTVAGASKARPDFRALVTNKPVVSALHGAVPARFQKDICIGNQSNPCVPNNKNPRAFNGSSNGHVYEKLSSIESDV

Compound | Extraction Ratio @ 1 μM [1] | IC50 [2] [nM]
CC(c1cncc(-c2ccc(F)c(C(F)F)c2)c1)N1CCOC1=O (racemic) [Example 60, (R/S)-3-[1-[5-[3-(difluoromethyl)-4-fluoro-phenyl]-3-pyridyl]ethyl]oxazolidin-2-one] | 0.42 | 785
C[C@H]1CN(Cc2cncc(-c3ccc(F)c(C(F)F)c3)c2)C(=O)O1 (single isomer, unassigned) [Example 27, (S*)-3-[[5-[3-(Difluoromethyl)-4-fluoro-phenyl]-3-pyridyl]methyl]-5-methyl-oxazolidin-2-one] | 0.42 | 14
O=C1OCCCN1Cc1cncc(-c2ccc(F)c(OC(F)F)c2)c1 [Example 1, 3-[[5-[3-(Difluoromethoxy)-4-fluoro-phenyl]-3-pyridyl]methyl]-1,3-oxazinan-2-one] | 0.49 | 10
O=C1OCCN1Cc1cncc(-c2ccc(F)c(C(F)F)c2)c1 [Example 22, 3-[[5-[3-(Difluoromethyl)-4-fluoro-phenyl]-3-pyridyl]methyl]oxazolidin-2-one] | 0.63 | 11
O=C1OCCCN1Cc1cncc(-c2ccc(F)c(C(F)F)c2)c1 [Example 38, 3-[[5-[3-(Difluoromethyl)-4-fluoro-phenyl]-3-pyridyl]methyl]-1,3-oxazinan-2-one] | <0.298 | 9
O=C1OCCCN1Cc1cncc(-c2ccc(Cl)c(OC(F)F)c2)c1 [Example 53, 3-[[5-[4-chloro-3-(difluoromethoxy)phenyl]-3-pyridyl]methyl]-1,3-oxazinan-2-one] | 0.61 | 
[2H]C([2H])(c1cncc(-c2ccc(F)c(C(F)F)c2)c1)N1CCOC1=O [Example 54, 3-[Dideuterio-[5-[3-(difluoromethyl)-4-fluoro-phenyl]-3-pyridyl]methyl]oxazolidin-2-one] | 0.61 | 13
Cc1ncc(-c2ccc(F)c(C(F)F)c2)cc1CN1CCOC1=O [Example 90, 3-[[5-[3-(Difluoromethyl)-4-fluoro-phenyl]-2-methyl-3-pyridyl]methyl] oxazolidin-2-one] | 0.60 | 13
Cc1ncc(-c2ccc(F)c(C(F)F)c2)cc1CN1CCCOC1=O [Example 97, 3-[[5-[3-(Difluoromethyl)-4-fluoro-phenyl]-2-methyl-3-pyridyl]methyl]-1,3-oxazinan-2-one] | 0.55 | 27
C[C@@H]1COC(=O)N1Cc1cc(-c2ccc(F)c(OC(F)F)c2)cnc1OC(F)F [Example 134, (4R)-3-[[-(Difluoromethoxy)-5-[3-(difluoromethoxy)-4-fluoro-phenyl]-3-pyridyl]methyl]-4-methyl-oxazolidin-2-one] |  | 61
CC(F)(F)c1ncc(-c2ccc(F)c(C(F)F)c2)cc1CN1CCOC1=O [Example 135, 3-[[2-(1,1-Difluoroethyl)-5-[3-(difluoromethyl)-4-fluoro-phenyl]-3-pyridyl]methyl]oxazolidin-2-one] |  | 47
CC(F)(F)c1ncc(-c2ccc(F)c(C(F)F)c2)cc1CN1CCCOC1=O [Example 136, 3-[[2-(1,1-Difluoroethyl)-5-[3-(difluoromethyl)-4-fluoro-phenyl]-3-pyridyl]methyl]-1,3-oxazinan-2-one] |  | 99
CC(F)(F)c1ncc(-c2ccc(F)c(OC(F)F)c2)cc1CN1CCCOC1=O [Example 137, 3-[[2-(1,1-Difluoroethyl)-5-[3-(difluoromethoxy)-4-fluoro-phenyl]-3-pyridyl]methyl]-1,3-oxazinan-2-one] |  | 76
CC(F)(F)c1ncc(-c2ccc(F)c(C(F)F)c2)cc1CN1CC2(CCC2)OC1=O [Example 138, 6-[[2-(1,1-Difluoroethyl)-5-[3-(difluoromethyl)-4-fluoro-phenyl]-3-pyridyl]methyl]-8-oxa-6-azaspiro[3.4]octan-7-one] |  | 549
C[C@@H]1CN(Cc2cc(-c3ccc(F)c(C(F)F)c3)cnc2C(C)(F)F)C(=O)O1 [Example 139, (5R)-3-[[2-(1,1-Difluoroethyl)-5-[3-(difluoromethyl)-4-fluoro-phenyl]-3-pyridyl]methyl]-5-methyl-oxazolidin-2-one] |  | 134
C[C@H]1CN(Cc2cc(-c3ccc(F)c(C(F)F)c3)cnc2C(C)(F)F)C(=O)O1 [Example 140, (5S)-3-[[2-(1,1-Difluoroethyl)-5-[3-(difluoromethyl)-4-fluoro-phenyl]-3-pyridyl]methyl]-5-methyl-oxazolidin-2-one] |  | 111
CC(F)(F)c1ncc(-c2ccc(F)c(C(F)F)c2)cc1CN1CC2(CC2)OC1=O [Example 141, 5-[[2-(1,1-Difluoroethyl)-5-[3-(difluoromethyl)-4-fluoro-phenyl]-3-pyridyl]methyl]-7-oxa-5-azaspiro[2.4]heptan-6-one] |  | 245
C[C@H]1COC(=O)N1Cc1cc(-c2ccc(F)c(C(F)F)c2)cnc1C(C)(F)F [Example 142, (4S)-3-[[2-(1,1-Difluoroethyl)-5-[3-(difluoromethyl)-4-fluoro-phenyl]-3-pyridyl]methyl]-4-methyl-oxazolidin-2-one] |  | 2000
C[C@@H]1COC(=O)N1Cc1cc(-c2ccc(F)c(C(F)F)c2)cnc1C(C)(F)F [Example 143, (4R)-3-[[2-(1,1-Difluoroethyl)-5-[3-(difluoromethyl)-4-fluoro-phenyl]-3-pyridyl]methyl]-4-methyl-oxazolidin-2-one] |  | 180
C[C@@H]1COC(=O)N1Cc1cc(-c2ccc(F)c(OC(F)F)c2)cnc1C(C)(F)F [Example 144, (4R)-3-[[2-(1,1-Difluoroethyl)-5-[3-(difluoromethoxy)-4-fluoro-phenyl]-3-pyridyl]methyl]-4-methyl-oxazolidin-2-one] |  | 157
C[C@H]1COC(=O)N1Cc1cc(-c2ccc(F)c(OC(F)F)c2)cnc1C(C)(F)F [Example 145, (4S)-3-[[2-(1,1-Difluoroethyl)-5-[3-(difluoromethoxy)-4-fluoro-phenyl]-3-pyridyl]methyl]-4-methyl-oxazolidin-2-one] |  | 492
CC(F)(F)c1ncc(-c2ccc(F)c(OC(F)F)c2)cc1CN1CC2(CC2)OC1=O [Example 146, 5-[[2-(1,1-Difluoroethyl)-5-[3-(difluoromethoxy)-4-fluoro-phenyl]-3-pyridyl]methyl]-7-oxa-5-azaspiro[2.4]heptan-6-one] |  | 212
CC(F)(F)c1ncc(-c2ccc(F)c(OC(F)F)c2)cc1CN1CC2(CCC2)OC1=O [Example 147, 6-[[2-(1,1-Difluoroethyl)-5-[3-(difluoromethoxy)-4-fluoro-phenyl]-3-pyridyl]methyl]-8-oxa-6-azaspiro[3.4]octan-7-one] |  | 392
C[C@H]1CN(Cc2cc(-c3ccc(F)c(OC(F)F)c3)cnc2C(C)(F)F)C(=O)O1 [Example 148, (5S)-3-[[2-(1,1-Difluoroethyl)-5-[3-(difluoromethoxy)-4-fluoro-phenyl]-3-pyridyl]methyl]-5-methyl-oxazolidin-2-one] |  | 147
C[C@@H]1CN(Cc2cc(-c3ccc(F)c(OC(F)F)c3)cnc2C(C)(F)F)C(=O)O1 [Example 149, (5R)-3-[[2-(1,1-Difluoroethyl)-5-[3-(difluoromethoxy)-4-fluoro-phenyl]-3-pyridyl]methyl]-5-methyl-oxazolidin-2-one] |  | 127
O=C1OCCN1Cc1cc(-c2ccc(F)c(OC(F)F)c2)cnc1F [Example 150, 3-((5-(3-(Difluoromethoxy)-4-fluorophenyl)-2-fluoropyridin-3-yl)methyl)oxazolidin-2-one] |  | 11
O=C1OCCCN1Cc1cc(-c2ccc(F)c(OC(F)F)c2)cnc1F [Example 151, 3-((5-(3-(Difluoromethoxy)-4-fluorophenyl)-2-fluoropyridin-3-yl)methyl)-1,3-oxazinan-2-one] |  | 11
